Active and inactive are the calls of the source. The rule behind the calls is not given here.
Columns and labels:
[1] = Half life in mouse at 1 mg/kg, iv measured up to 12 hrs by LC-MS/MS analysis; format: ADME, organism-based; details: in vivo
[2] = AUC (0 to t) in mouse at 10 mg/kg, po measured up to 24 hrs by LC-MS/MS analysis; format: ADME, organism-based; set-up: time < 24 hrs, dose 10 mg/kg, route po; details: in vivo
[3] = AUC (0 to t) in Sprague-Dawley rat at 1 mg/kg, iv measured up to 12 hrs by LC-MS/MS analysis; format: ADME, organism-based; set-up: dose 1 mg/kg, time < 12 hrs, route iv; details: in vivo
[4] = Cmax in Sprague-Dawley rat at 10 mg/kg, po measured up to 24 hrs by LC-MS/MS analysis; format: ADME, organism-based; set-up: dose 10 mg/kg, time < 24 hrs, route po; details: in vivo
[5] = AUC (0 to t) in Beagle dog at 1 mg/kg, iv measured up to 12 hrs by LC-MS/MS analysis; format: ADME, organism-based, Canis lupus familiaris; set-up: time < 12 hrs, dose 1 mg/kg, route iv; details: in vivo
[6] = Half life in Beagle dog at 10 mg/kg, po measured up to 24 hrs by LC-MS/MS analysis; format: ADME, organism-based, Canis lupus familiaris; details: in vivo
[7] = Cmax in Beagle dog at 10 mg/kg, po measured up to 24 hrs by LC-MS/MS analysis; format: ADME, organism-based, Canis lupus familiaris; set-up: time < 24 hrs, dose 10 mg/kg, route po; details: in vivo
[8] = Cmax in mouse plasma at 50 mg/kg, po measured up to 24 hrs by LC-MS/MS analysis; format: ADME, organism-based; set-up: dose 50 mg/kg, time < 24 hrs, route po
[9] = Cmax in mouse Pancreas at 50 mg/kg, po measured up to 24 hrs by LC-MS/MS analysis; format: ADME, organism-based; set-up: dose 50 mg/kg, time < 24 hrs, route po
[10] = test system: Mus musculus; experiment: Antidiabetic activity against 8 hrs fasted multi low dose STZ-induced C57BL/6J mouse model of type 1 diabetes assessed as decrease in fasting blood glucose level at 50 mg/kg, po administered for 77 days in presence of metformin (reference value: 22.3 mmol/L); format: functional; details: time 77 day
[11] = test system: Mus musculus; experiment: Antidiabetic activity against multi low dose STZ-induced C57BL/6J mouse model of type 1 diabetes assessed as food intake at 50 mg/kg, po administered for 78 to 79 days in presence of metformin (reference value: 4.7 g/day); format: functional; details: time 78-79 day
[12] = test system: Mus musculus; experiment: Antidiabetic activity against multi low dose STZ-induced C57BL/6J mouse model of type 1 diabetes assessed as increase in water consumption at 50 mg/kg, po administered upto 79 days in presence of metformin; format: functional, organism-based; details: time <= 79.0 day
[13] = test system: Mus musculus; experiment: Antidiabetic activity in multi low dose STZ-induced C57BL/6J mouse model of type 1 diabetes assessed as reduction in HbA1c level at 50 mg/kg, po qd administered in presence of metformin (reference value: 7.6 %); format: functional; set-up: scale not given: the % may be the effect or the level left
[14] = Toxicity in multi low dose STZ-induced C57BL/6J mouse model of type 1 diabetes assessed as effect on pancreas morphology at 50 mg/kg, po qd in presence of metformin by H and E staining based analysis; format: organism-based; details: in vivo
[15] = test system: Mus musculus; experiment: Antidiabetic activity against 12 hrs fasted high fat diet-STZ-induced C57BL/6J mouse model of type 2 diabetes assessed as decrease in fasting blood glucose level at 50 mg/kg, po qd measured immediately (reference value: 20.3 mmol/L); format: functional
[16] = test system: Mus musculus; experiment: Antidiabetic activity in 12 to 14 hrs fasted high fat diet-STZ-induced C57BL/6J mouse model of type 2 diabetes assessed as reduction on blood glucose at 50 mg/kg, po qd pretreated with compound followed by glucose challenge measured upto 180 mins by IPGTT assay; format: functional, organism-based
[17] = test system: RIN-m5F; experiment: Protection against IL-1beta-induced cell damage in rat RIN-m5F cells assessed as increase in cell survival at 0.03 to 0.3 uM incubated for 48 hrs by Cell Titer-Glo assay; format: functional, cell-based; details: dose 0.03-0.3 µM
[18] = test system: RIN-m5F; experiment: Protection against IFN-gamma-induced cell damage in rat RIN-m5F cells assessed as increase in cell survival at 0.03 to 0.3 uM incubated for 48 hrs by Cell Titer-Glo assay; format: functional, cell-based; details: dose 0.03-0.3 µM
[19] = test system: Serine/threonine-protein kinase 4 (Rattus norvegicus); experiment: Inhibition of IL-1beta-stimulated MST1 phosphorylation in rat RIN-m5F cells incubated for 12 hrs by Western blotting analysis; details: dose 0.1-10 µM, DDE = dose-dependent effect
[20] = test system: Serine/threonine-protein kinase 4 (Rattus norvegicus); experiment: Inhibition of TNF-alpha-stimulated MST1 phosphorylation in rat RIN-m5F cells incubated for 12 hrs by Western blotting analysis; details: dose 0.1-10 µM, DDE = dose-dependent effect
[21] = test system: Serine/threonine-protein kinase 4 (Rattus norvegicus); experiment: Inhibition of TNF-alpha-stimulated MST1 in rat INS1 cells assessed as reduction in MOB1 autophosphorylation incubated for 12 hrs by Western blotting analysis; details: dose 0.1-10 µM, DDE = dose-dependent effect
[22] = test system: Serine/threonine-protein kinase 4 (Rattus norvegicus); experiment: Inhibition of INF-gamma-stimulated MST1 in rat RIN-m5F cells assessed as reduction in MOB1 autophosphorylation incubated for 12 hrs by Western blotting analysis; details: dose 0.1-10 µM, DDE = dose-dependent effect
[23] = test system: Serine/threonine-protein kinase 4 (Rattus norvegicus); experiment: Inhibition of IL-1beta[…]-stimulated MST1 in rat RIN-m5F cells assessed as reduction in MOB1 autophosphorylation incubated for 12 hrs by Western blotting analysis; details: dose 0.1-10 µM, DDE = dose-dependent effect

With `Cc1ccccc1C1C(=O)N(C)c2cnc(Nc3ccc(S(N)(=O)=O)cc3)nc2N1C` (stereo not drawn) the half-life [1] was 1.7 h, the AUC(0-t) at 24 h [2] was 5580 ng·h/mL and the AUCt [3] was 2553 ng·h/mL. For the same molecule, the Cmax [4] was 1720 ng/mL, the AUC(0-t) at 12 h [5] was 764 ng·h/mL and the half-life [6] was 5.79 h. The Cmax [7] was 1110 ng/mL, the Cmax [8] was 3990 ng/mL and the Cmax [9] was 12200 ng/mL. For the same molecule, the Activity [10] was 8.9 mmol/L, the Activity [11] was 4.1 g/day and the Activity [12] was “Active”. For the same molecule, the Activity [13] was 6.1%, the Activity [14] was “Non-Toxic” and the Activity [15] was 20.2 mmol/L. The Activity [16] was “Active”, the Activity [17] was “Active” and the Activity [18] was “Active”. The inhibition [19] was “Dde”, the inhibition [20] was “Dde” and the inhibition [21] was “Dde”. For the same molecule, the inhibition [22] was “Dde” and the inhibition [23] was “Dde”.
